Like-named read-outs stand apart in the source and are kept apart here.
Tested on: BV-2 (mouse microglia) cells
Experiment: progranulin secretion from BV-2 cells, mouse progranulin ELISA of conditioned media
Format: cell-based
Details: BV-2 cells, 16 hours incubation, 8-point curves starting at 10 μM
Description: BV-2 cells are split the day before plating into a 96 well plate format at approximately 80%. Cells should be plated the day before and allowed for 1 hour attachment period and for 16 hour incubation. […] Standard ELISA kits to measure PGRN are available from vendors such as Adipogen, R&D, and Biovendor.
Compound potency was determined by measuring progranulin secretion from BV-2 (mouse microglia) cells. BV-2 cells were grown in RPMI with 2 mM L-glutamine supplemented with 10% fetal bovine serum. On the day of the assay, cells were plated in 96-well plates at a density of 30,000 cells/well in RPMI (Roswell Park Memorial Institute media)/L-glutamine supplemented with 2% Fetal clone serum II (plating media) and left to adhere for 1 hour. Following attachment to the plate, media was replaced with treatment (8-point curves in half-log dilutions starting at 10 μM) in plating media and incubated for 16 hours. Secreted progranulin was measured from a 1:10 dilution of the conditioned media using the R&D Systems mouse progranulin ELISA kit (cat #DY2557) and following the manufacturer's instructions.

[1] = Mus musculus, BV-2, 16 h, assay run v1, read-out: PRGN v1 (EC50, progranulin secretion)
[2] = Mus musculus, BV-2, 16 h, assay run v2 (same protocol, different assay), read-out: PRGN v2 (EC50, progranulin secretion)
[3] = Mus musculus, assay run v2 (same protocol, different assay), read-out: PRGN v2 (EC50, progranulin secretion)
[4] = assay run v2 (same protocol, different assay), read-out: PRGN v2 (EC50, progranulin secretion)

| Structure (SMILES) | EC50 [1] [µM] | EC50 [2] [µM] | EC50 [3] [µM] | EC50 [4] [µM] |
| --- | --- | --- | --- | --- |
| O=C(N[C@@H]1CN2CCC1CC2)N1CCc2ccccc2[C@H]1c1ccc2cncn2c1 [Compound 1112] | > 10 | > 10 |  |  |
| O=C(N[C@@H]1CN2CCC1CC2)N1CCc2ccccc2[C@@H]1c1ccc(-n2cnnc2)cc1 [Compound 1113] | 3.59 | > 10 |  |  |
| O=C(N[C@@H]1CN2CCC1CC2)N1CCc2ccccc2[C@H]1c1ccc(-n2cnnc2)cc1 [Compound 1114] | > 10 | > 10 |  |  |
| O=C(N[C@@H]1CN2CCC1CC2)N1CCc2ccccc2[C@@H]1c1ccc(OC2CC2)cc1 [Compound 1115] | 3.95 | 1.18 |  |  |
| O=C(N[C@@H]1CN2CCC1CC2)N1CCc2ccccc2[C@H]1c1ccc(OC2CC2)cc1 [Compound 1116] | 4.47 | > 10 |  |  |
| O=C(N[C@@H]1CN2CCC1CC2)N1CCc2ccccc2[C@@H]1c1cnc2nccn2c1 [Compound 1117] | > 10 | > 10 |  |  |
| O=C(N[C@@H]1CN2CCC1CC2)N1CCc2ccccc2[C@H]1c1cnc2nccn2c1 [Compound 1118] | > 10 | > 10 |  |  |
| O=C1CCCN1c1ccc([C@H]2c3ccccc3CCN2C(=O)N[C@@H]2CN3CCC2CC3)cc1 [Compound 1119] | > 10 | > 10 |  |  |
| O=C1CCCN1c1ccc([C@@H]2c3ccccc3CCN2C(=O)N[C@@H]2CN3CCC2CC3)cc1 [Compound 1120] | > 10 | > 10 |  |  |
| O=C(N[C@@H]1CN2CCC1CC2)N1CCc2cccnc2[C@@H]1c1ccc(Cl)cc1 [Compound 1121] | > 10 | 5.22 |  |  |
| O=C(N[C@@H]1CN2CCC1CC2)N1CCc2cccnc2[C@H]1c1ccc(Cl)cc1 [Compound 1122] | 3.13 | > 10 |  |  |
| CS(=O)(=O)N1CC([C@H]2c3ccccc3CCN2C(=O)N[C@@H]2CN3CCC2CC3)C1 [Compound 1123] | > 10 | > 10 |  |  |
| CS(=O)(=O)N1CC([C@@H]2c3ccccc3CCN2C(=O)N[C@@H]2CN3CCC2CC3)C1 [Compound 1124] | > 10 | > 10 |  |  |
| O=C(Cc1ccccc1)N1CCc2ccccc2[C@@H]1c1ccc(F)cc1 [Compound 1125, (S)-1-(1-(4-fluorophenyl)-3,4-dihydroisoquinolin-2(1H)-yl)-2-phenylethanone] |  | > 10 |  |  |
| O=C(O[C@@H]1CN2CCC1CC2)N1CCc2ccccc2[C@@H]1c1ccc(C(F)(F)F)cc1 [Compound 1126] |  |  | 8.6 |  |
| O=C(O[C@@H]1CN2CCC1CC2)N1CCc2ccccc2[C@H]1c1ccc(C(F)(F)F)cc1 [Compound 1127] |  |  | > 10 |  |
| O=C(O[C@@H]1CN2CCC1CC2)N1CCc2ccccc2[C@@H]1c1ccc(OC(F)(F)F)cc1 [Compound 1128] |  |  | 2.6 |  |
| O=C(O[C@@H]1CN2CCC1CC2)N1CCc2ccccc2[C@H]1c1ccc(OC(F)(F)F)cc1 [Compound 1129] |  |  | 4.35 |  |
| CN(C(=O)N1CCc2ccccc2[C@@H]1c1ccc(F)cc1)[C@@H]1CN2CCC1CC2 [Compound 1130] |  | 1.03 |  |  |
| CN(C(=O)N1CCc2ccccc2[C@@H]1c1ccc(F)cc1)[C@H]1CN2CCC1CC2 [Compound 1131] |  | > 10 |  |  |
| Cc1nc2cc([C@H]3c4ccccc4CCN3C(=O)O[C@@H]3CN4CCC3CC4)ccc2s1 [Compound 1132] |  |  | > 10 |  |
| Cc1nc2cc([C@@H]3c4ccccc4CCN3C(=O)O[C@@H]3CN4CCC3CC4)ccc2s1 [Compound 1133] |  |  | 9.28 |  |
| O=C(O[C@@H]1CN2CCC1CC2)N1CCc2ccccc2[C@@H]1COc1ccc(F)cc1 [Compound 1134] |  |  |  | > 10 |
| O=C(O[C@@H]1CN2CCC1CC2)N1CCc2ccccc2[C@H]1COc1ccc(F)cc1 [Compound 1135] |  |  |  | > 10 |
| O=S(=O)(C[C@@H]1CN2CCC1CC2)N1CCc2ccccc2[C@@H]1c1ccc(F)cc1 [Compound 1136] |  | 1.7 |  |  |
| O=S(=O)(C[C@H]1CN2CCC1CC2)N1CCc2ccccc2[C@@H]1c1ccc(F)cc1 [Compound 1137] |  | 4.41 |  |  |
| Cc1nc2ccc([C@H]3c4ccccc4CCN3C(=O)O[C@@H]3CN4CCC3CC4)cc2o1 [Compound 1138] |  |  | > 10 |  |
